“Also recorded” adds a separate entry of the source.
What was measured:
Bcl-xL = experiment: Western blot of Bcl-xL in ARPE-19 cells under TNFα/H2O2; format: cell-based, human; conditions: 50 nM; TNFα plus H2O2 (400 or 800 μM) 6 h
Method: Analysis of pro- and anti-apoptotic proteins in ARPE-19 cells: Bcl-2 family proteins were analyzed by Western-blot analysis. In brief, 20-μg equivalents of each cell extract were subjected to electrophoresis on a 8-16% gel (Promega, Madison, Wis.) at 125 volts for 2 h. The proteins were transferred to nitrocellulose membrane at 30 volts for 1 h at 4° C. The membranes were subjected to treatment with primary antibodies of Bcl-2, Bcl-xL, Bax, and Bad for 1 h at room temperature, and probed 30 min with secondary antibody, goat anti-rabbit Ig:HRPO and HRP-conjugated anti-biotin antibody. (BD Sciences—Pharminogen, San Diego, Calif.) Then proteins were evaluated using an ECL kit. (Amersham Biosciences Corp., Piscataway, N.J.)
Using the same TNFα/H2O2 concentrations, Bcl-2 proteins were assayed. Cells were grown for 72 h after plating, placed in serum-free medium for 1 h, then incubated with TNFα/H2O2 for 6 h. Protein expression and Western-blot analysis were performed as described in Example 13. Data in FIGS. 14A, 14B, 14C and 14D represent four independent experiments with triplicate samples in each case. Anti-apoptotic protein Bcl-xL was enhanced in ARPE-19 cells by TNFα/H2O2 (800 μM) (FIG. 14B, first bar), whereas Bcl-2 was not changed (FIG. 14A, first bar).

Bax gene expression = experiment: HGU133 GeneChip DNA array in HN cells: Bax; format: cell-based, human; conditions: Aβ42 25 μM, DHA 50 nM or NPD1 50 nM, 18 h, nsc = no significant change
Excerpt: Total RNA quality and abundance were profiled using RNA Nano LabChips (Caliper Technologies, Mountainview, Calif.; Agilent Technologies, Palo Alto, Calif.).
Biotinylated antisense cRNAs were synthesized from cDNA using the Superscript Choice System (Invitrogen) and Enzo Biorray High Yield RNA Transcript Labeling kits according to the manufacturer's protocols (Affymetrix) and as described in Colangelo, V., Schurr, J., Ball, M. J., Pelaez, R. P., Bazan, N. G., Lukiw, W. J. (2002) J. Neurosci. […] Probes were hybridized against HU133Av2 GeneChip DNA arrays that interrogate approximately 33,000 full-length mouse genes and expressed sequence tag (EST) clusters.
DNA arrays were scanned at 570 nm, and significant features were extracted using Data Mining Tool 3.0 (Affymetrix). Data analyses and graphic presentations were performed using Microarray Suite 5.0 (Affymetrix), GeneSpring 6.0 (Silicon Genetics, Redwood City, Calif.) and Adobe Photoshop 6.0 (Adobe Systems, San Jose, Calif.). Volcano plots were plotted representing total gene expression patterns as a function of fold-change as compared to expression patterns of age-matched controls as plotted against p, as calculated by an analysis of variance (ANOVA). […] Statistical significance was analyzed using a two-way factorial analysis of variance (p, ANOVA; Statistical Analysis System; SAS Institute, Cary, N.C. ).

COX-2 mRNA = COX-2 mRNA in IL-1β-exposed human neural progenitor cells; format: cell-based; conditions: p<0.05
Method: Human neural (HN) progenitor cells in primary culture. HN cells were grown to ˜70% confluence (˜50,000 cells per 3.5-cm diameter well) in 6-well COSTAR plates at 37° C., 5% CO2/20% O2/75% N2 in humidified air at 1 atm (normoxic conditions) in NPMM medium (Clonetics CC-4241) supplemented with hFGF, NSF-1, hEGF, GA-1000, as described by the manufacturer (Clonetics, Walkersville, Md.). HN cells tested negative for HIV-1, hepatitis B and C, mycoplasma, bacteria, yeast, and fungi, and positive for the glial and neuronal markers GFAP, MAP2, and β-tubulin III (Clonetics). After two weeks of development, HN cells were exposed to human recombinant interleukin 1-beta (IL-1β) (10 ng/ml) for 3 h in the presence or absence of 0.03, 0.3, 3.0, 30, and 300 nM 10,17S-docosatriene (NPD1), DHA, or PBS pH 7.4 (control). RNA and protein were quickly isolated using Trizol Reagent (Invitrogen, Carlsbad, Calif.) and stored at −81° C. within minutes of isolation.
(§1) COX-2 RNA abundance in hippocampus and HN cells. Abundance of human-specific COX-1 and COX-2 RNA message was assayed using RT-PCR as described in Bazan, N. G., and Lukiw, W. J. (2002) J. Biol. Chem. 277, 30359-30367.

[1] = tested on: IL-1β-induced HIF-1α activation; experiment: EMSA of HIF-1α in IL-1β-exposed human neural progenitor cells; format: cell-based; conditions: HN progenitor cells; IL-1β 10 ng/ml 3 h
Method: Human neural (HN) progenitor cells in primary culture. HN cells were grown to ˜70% confluence (˜50,000 cells per 3.5-cm diameter well) in 6-well COSTAR plates at 37° C., 5% CO2/20% O2/75% N2 in humidified air at 1 atm (normoxic conditions) in NPMM medium (Clonetics CC-4241) supplemented with hFGF, NSF-1, hEGF, GA-1000, as described by the manufacturer (Clonetics, Walkersville, Md.). HN cells tested negative for HIV-1, hepatitis B and C, mycoplasma, bacteria, yeast, and fungi, and positive for the glial and neuronal markers GFAP, MAP2, and β-tubulin III (Clonetics). […]
Electrophoretic mobility-shift assay (EMSA) of human AP1, HIF-1α, NF-κBp50/p65, and STAT-1α. Nuclear protein extracts (NPXTs) were prepared from one to three 3.5 cm-diameter wells of HN cells and quantitated. NPXTs (5 μg) derived from HN cells were incubated with[γ-^32P]-ATP (˜3000 Ci/mmol)-end-labeled AP1, HIF-1α, NF-κκBp50/p65, or STAT-1α consensus and mutant oligonucleotides in 5-μl volumes, reacted for 30 min on ice, analyzed on 5% or 10% acrylamide/90 mM Tris-borate pH 8.4, 1 mM EDTA (TBE) gels, dried onto 2-mm Whatman filter paper at 80° C. for 2 h, and phosphorimaged using a Typhoon Variable Mode Imager (Amersham Pharmacia Biotech, Piscataway, N.J. ).

COX-2 expression = experiment: COX-2 mRNA abundance in ipsilateral hippocampus after MCA-O; format: in vivo, mouse; conditions: 1 h MCA-O, 2 h reperfusion, infused into third ventricle (NPD1 0.16 μg/ml)
Method: as §1
To determine COX-1 and COX-2 expression, mRNA abundance in the ipsilateral hippocampus was measured. […] A 3-fold increase of COX-2 was seen due to MCA-O reperfusion (FIG. 7C). The infusion of the precursor DHA as well as its product 10,17S-docosatriene (NPD1) inhibited COX-2 expression by 14% and 52%, respectively.

ARPE-19 cells = experiment: Hoechst staining, TNFα/H2O2 oxidative stress-induced apoptosis; format: cell-based, human
Method: ARPE-19 cell culture and chemicals: ARPE-19 cells (L. M. Hjelmeland, ATCC # CRL-2302) were grown and maintained in DMEM-F12 medium supplemented with 10% FBS and incubated at 37° C. with a constant supply of 5% CO2. ARPE-19 cells are spontaneously transformed human retinal pigment epithelial cells that conserve cellular biological and functional properties. All chemicals were purchased from Sigma Chemical Co. (St. Louis, Mo.) unless otherwise indicated.
Hoechst staining: ARPE-19 cells were loaded with 2 μM Hoechst dissolved in a Locke's solution (Promega, Madison, Wis.) and incubated one h at 37° C. before imaging. Cells were then washed once with PBS and viewed using a Nikon DIAPHOT 200 microscope under UV fluorescence. Images were recorded by a Hamamatsu Color Chilled 3CCD camera and Photoshop 5.0 software, as described in Mukherjee, P. K., DeCoster, M. A., Campbell, F. Z., Davis, R. J. & Bazan, N. G. (1999) J. Biol. Chem. 274:6493-6498.
Several experimental conditions that result in reproducible oxidative-stress-induced apoptosis in ARPE-19 cells were tested. One condition chosen was the combination of TNFα with H2O2, both in relatively low concentrations. Typically 10 ng/ml of TNFα and 400-800 μM H2O2 led to marked increase in Hoechst-positive cells (Data not shown). Neither TNFα nor H2O2 alone triggered a significant effect under these conditions. (Data not shown).
Serum starvation made ARPE-19 cells more sensitive to oxidative stress-triggered apoptosis induced by TNFα/H2O2. Cells were grown in culture for 72 h in the presence of BSA (3.35 μM) with or without DHA (6.7 μM). Endogenous NPD1 formation was enhanced by BSA-DHA (FIG. 12A).
In the next experiment, confluent cells were starved for 8 h, then TNFα/H2O2 was added and incubated for 14 h before staining with Hoechst reagent. NPD1 (50 nM) was added at the time of adding TNFα/H2O2. […] When the TNFα concentration (10 ng/ml) was maintained and H2O2 concentration was decreased from 800 to 400 μM, fewer Hoechst-positive cells were seen. […] (Data not shown).

CC/C=C\C[C@H](O)\C=C/C=C/C=C/[C@H](O)C/C=C\C/C=C\CCC(=O)O [NPD1, 10,17S-docosatriene]
effect on Bcl-xL expression (Bcl-xL): increased expression | Bax gene expression, fold change over untreated controls (Bax gene expression): nsc | effect on IL-1β-induced expression of COX-2 mRNA (COX-2 mRNA): inhibited | effect on IL-1β-induced HIF-1α activation [1]: but not IL-1β-induced HIF-1α activation, was inhibited | inhibition of COX-2 expression (mRNA) (COX-2 expression): 52% | inhibition of oxidative stress (TNFα/H2O2)-induced Hoechst-positive cells / apoptosis (ARPE-19 cells; 50 nM added with TNFα 10 ng/ml plus H2O2 (400-800 μM), 14 h): inhibition; also recorded: inhibited apoptosis | inhibition of oxidative stress caused by the lower H2O2 concentration (ARPE-19 cells; 50 nM, TNFα 10 ng/ml plus H2O2 400 μM): almost completely inhibited
